Results on 14 molecules are retold here after patent US12202844B2, “MAP4K1 inhibitors” (Blueprint Medicines Corporation, priority 2021, dated 2025).

As a reminder, the pEC50 is −log10 of the EC50, conventionally taken in molar units. What is called pIC50 is the negative decadic logarithm of the IC50, by convention in mol/L.

Molecules are shown by their SMILES. pEC50, pIC50: −log10 of the molar value. Like-named read-outs stand apart in the source and are kept apart here.

Experiment [1] deals with Primary T Cell (expanded CD3+ T cells). Briefly: T cell enhancement of cytokines: IL2 measurement (HTRF) in stimulated expanded CD3+ T cells. It is filed as cell-based, human. To be noted: plate-bound anti-CD3 and soluble anti-CD28, 24 h, IL2 by HTRF, read-out: IL-2 Primary T Cell EC50. The method, then:
T cells are isolated from whole blood of healthy donors by immunomagnetic negative selection following manufacture's protocol (StemCell Technologies, human T cell isolation kit). Purity of isolated cells is assessed by flow cytometry and yields 95-98% CD3^+ T cells. For expansion of T cells, 1×10^6 cells/well are plated in serum free cell expansion media (ThermoFisher) containing 30 U of recombinant human IL2 (R&D) and stimulated with 25 ul of CD3/CD28 beads (Invitrogen) in 24 well plates for 3-4 days. T cells are then expanded in 175 cm flasks and maintained at a cell density of 1 to 2.5×10^6 cells/ml days by addition of ⅔ of fresh media every 2-3 days. After 10-14 days, cells are frozen in BamBanker freezing media (Thermo) and stored in liquid nitrogen.
For IL2 measurement, expanded CD3^+ T cells are dispensed at 100K cells/well (cultured in X-VIVO 10 Serum-free media) and are stimulated with plate-bound anti-CD3 and soluble anti-CD28 in the presence of vehicle or compound of the disclosure at various concentrations for 24 h. As outlined in the manufacturer's protocol (Cisbio), 16 μL of conditioned media is transferred to a white 384-well low volume plate. Following a 24 h incubation with the anti-IL2 antibodies, the homogenous time resolved fluorescence (HTRF) is measured.
A general note: Time-resolved FRET reads energy transfer from a long-lived donor to a nearby acceptor.

In the next experiment the target is T1, MAP4K1 (HPK1) (Homo sapiens, UniProt Q92918).
T1 construct: purchased Invitrogen
T1 sequence (Q92918 whole entry): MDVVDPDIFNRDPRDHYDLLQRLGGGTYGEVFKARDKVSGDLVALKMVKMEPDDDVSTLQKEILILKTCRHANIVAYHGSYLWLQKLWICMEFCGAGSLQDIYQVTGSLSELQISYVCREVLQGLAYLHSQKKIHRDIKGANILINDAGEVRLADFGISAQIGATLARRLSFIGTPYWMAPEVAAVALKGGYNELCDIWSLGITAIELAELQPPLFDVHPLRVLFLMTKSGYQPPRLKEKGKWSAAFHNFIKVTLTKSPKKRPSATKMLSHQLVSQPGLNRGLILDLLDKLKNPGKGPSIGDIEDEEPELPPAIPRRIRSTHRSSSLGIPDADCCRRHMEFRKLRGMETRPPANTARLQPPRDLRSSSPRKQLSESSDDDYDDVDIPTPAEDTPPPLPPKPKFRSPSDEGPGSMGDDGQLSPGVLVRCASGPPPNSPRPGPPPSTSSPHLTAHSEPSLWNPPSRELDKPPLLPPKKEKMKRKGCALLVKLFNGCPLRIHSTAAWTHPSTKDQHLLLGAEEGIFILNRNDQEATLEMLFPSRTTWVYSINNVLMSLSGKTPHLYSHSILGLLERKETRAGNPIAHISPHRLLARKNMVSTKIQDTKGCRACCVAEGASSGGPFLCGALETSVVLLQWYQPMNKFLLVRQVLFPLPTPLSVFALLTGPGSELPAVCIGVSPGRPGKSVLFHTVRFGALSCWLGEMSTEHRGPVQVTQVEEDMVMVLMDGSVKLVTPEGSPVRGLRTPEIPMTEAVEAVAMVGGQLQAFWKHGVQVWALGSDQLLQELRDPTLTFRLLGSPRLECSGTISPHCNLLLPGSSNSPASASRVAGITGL
As to the kind of experiment: Inhibition of MAP4K1 biochemical enzymatic activity (EZReader 2 electrophoretic mobility shift). The conditions noted are these: HPK1 (Invitrogen), S6K2tide 1.5 μM, 120 min; ATP 26 μM or 1000 μM (not given). The procedure, abridged: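 Untreated enzyme (0.1-15 nM) was incubated with 1.5 μM fluorescent peptide and 20-1000 μM ATP (apparent Km or 1 mM) in HEPES pH 7.5, MgCl2, DTT, Brij 35 at 25° C. for 60-180 min, with 1% DMSO and a 10-point 4-fold compound series. After an EDTA stop, product/substrate peptide peak ratio was read by mobility shift.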
(Mobility shift assays separate free from complexed probe on a gel.)

With `CCC[C@@](C)(N)c1cnc(O[C@H](C)CCS(C)(=O)=O)c2cnc(Nc3ccc4c(n3)[C@@H](C)C(C)(C)OC4=O)cc12` (single isomer, unassigned) [Compound 126], the pEC50 in experiment [1] (Homo sapiens, T-cell, 24 h) is 7.68. Moreover, the pIC50 on MAP4K1 (HPK1) is 9.77.
Turning to `CC[C@@](C)(N)c1cnc(O[C@H](C)CCS(=O)(=O)CC)c2cnc(Nc3ccc4c(n3)[C@@H](C)C(C)(C)OC4=O)cc12` (single isomer, unassigned) [Compound 133], the pEC50 in experiment [1] (Homo sapiens, T-cell, 24 h) was 7.64. Moreover, the pIC50 on MAP4K1 (HPK1) is 9.70.
The like results for `CCS(=O)(=O)[C@H](C)C[C@@H](C)Oc1ncc([C@H](N)C2CC2)c2cc(Nc3ccc4c(n3)[C@@H](C)C(C)(C)OC4=O)ncc12` (single isomer, unassigned) [Compound 138] were, in that order, 7.42 and 9.52.
The like results for `CC[C@@](C)(N)c1cnc(O[C@@H](C)CCS(C)(=O)=O)c2cnc(Nc3ccc4c(n3)[C@@H](C)[C@@H](C)OC4=O)cc12` (single isomer, unassigned) [Compound 148] were, in that order, 7.59 and 9.24.
The matching figures for `CC[C@@](C)(N)c1cnc(O[C@@H]2C[C@H](S(C)(=O)=O)[C@H]2C)c2cnc(Nc3ccc4c(n3)[C@@H](C)[C@H](C)OC4=O)cc12` (single isomer, unassigned) [Compound 150]: 7.85 and 9.49.
Regarding `CC[C@@](C)(N)c1cnc(O[C@@H]2C[C@H](S(C)(=O)=O)[C@H]2C)c2cnc(Nc3ccc4c(n3)[C@@H](C)[C@H](C)OC4=O)cc12` (single isomer, unassigned) [Compound 151], in experiment [1], the negative-log EC50 (pEC50) is 8.05. Also, at MAP4K1 (HPK1), the pIC50 is 9.80.
Take `CC[C@@](C)(N)c1cnc(O[C@H](C)C[C@@H](C)S(C)(=O)=O)c2cnc(Nc3ccc4c(n3)[C@@H](C)[C@@H](C)OC4=O)cc12` (single isomer, unassigned) [Compound 152]: the pEC50 in experiment [1] (Homo sapiens, T-cell, 24 h) is 7.96. Also, the pIC50 at MAP4K1 (HPK1) was 9.54.
Turning to `CC[C@@](C)(N)c1cnc(O[C@H](C)CCS(C)(=O)=O)c2cnc(Nc3ccc4c(n3)[C@@H](C)[C@@H](C)OC4=O)cc12` (single isomer, unassigned) [Compound 153], the pEC50 in experiment [1] (Homo sapiens, T-cell, 24 h) was 7.60. The pIC50 at MAP4K1 (HPK1) was 9.57.
`C[C@@H]1OC(=O)c2ccc(Nc3cc4c(C(C)(C)N)cnc(O[C@@H](C)C[C@@H]5CCCS5(=O)=O)c4cn3)nc2[C@H]1C` (single isomer, unassigned) [Compound 155]: the pEC50 in experiment [1] (Homo sapiens, T-cell, 24 h) is 7.77. Also, on MAP4K1 (HPK1), the pIC50 was 9.43.
Regarding `C[C@@H]1c2nc(Nc3cc4c(C(C)(C)N)cnc(OCCC[S@](C)(=N)=O)c4cn3)ccc2C(=O)OC1(C)C` (single isomer, unassigned) [Compound 168], the pEC50 in experiment [1] (Homo sapiens, T-cell, 24 h) was 7.46. Further, at MAP4K1 (HPK1), the pIC50 is 9.59.
The matching figures for `CC[C@@H](N)c1cnc(O[C@H]2C[C@@H](S(C)(=O)=O)C2)c2cnc(Nc3ccc4c(n3)[C@@H](C)C(C)(C)OC4=O)cc12` (single isomer, unassigned) [Compound 176]: 7.16 and 9.64.
As to `CC[C@@](C)(N)c1cnc(O[C@H](C)C[C@@H](C)[S@](C)(=N)=O)c2cnc(Nc3ccc4c(n3)C3(CC3)[C@@H](C)OC4=O)cc12` (single isomer, unassigned) [Compound 181], the pEC50 in experiment [1] (Homo sapiens, T-cell, 24 h) is 7.07. Moreover, the pIC50 at MAP4K1 (HPK1) is 9.74.
Consider `CC[C@@](C)(N)c1cnc(O[C@H](C)C[C@@H](C)[S@@](C)(=N)=O)c2cnc(Nc3ccc4c(n3)C(C)(C)[C@@H](C)OC4=O)cc12` (single isomer, unassigned) [Compound 182], for which the pEC50 in experiment [1] is 7.68. The pIC50 on MAP4K1 (HPK1) is 9.80.
The matching figures for `CC[C@@](C)(N)c1cnc(O[C@H](C)C[C@@H](C)[S@@](C)(=N)=O)c2cnc(Nc3ccc4c(n3)C(C)(C)[C@@H](C)OC4=O)cc12` (single isomer, unassigned) [Compound 183]: 7.37 and 9.80.
